Measured values from patent US6511592B1, “Biosensor for pentachlorophenol” (ISIS Innovation Limited, priority 1998, dated 2003).

What was measured:
[1] = biological target: T1, PCPH (Sphingobium chlorophenolicum, UniProt P42535); experiment: Substrate range of PCPH, oxidation determined by gas chromatography; format: biochemical, Flavobacterum sp. (ATCC 53874); design: made in house; host or cells: E. coli strain DH5a (tac promoter vector)
Excerpt: Samples from the environment contain many other compounds which may be substrates for PCPH and therefore interfere with PCP biosensing. The substrate range of the PCPH enzyme was therefore investigated. The compounds tested as possible substrates were toluene, biphenyl, phenylcyclohexane, 1-phenylcyclohexene, diphenylmethane, bibenzyl and hexadecane, included as a model long-chain alkane.

[2] = biological target: T2, pentachlorophenol hydroxylase (PCPH) (Sphingobium chlorophenolicum, UniProt P42535); conditions: earlier investigation of the substrate range (Orser and co-workers); cited from earlier work
T2 sequence (P42535 2-538): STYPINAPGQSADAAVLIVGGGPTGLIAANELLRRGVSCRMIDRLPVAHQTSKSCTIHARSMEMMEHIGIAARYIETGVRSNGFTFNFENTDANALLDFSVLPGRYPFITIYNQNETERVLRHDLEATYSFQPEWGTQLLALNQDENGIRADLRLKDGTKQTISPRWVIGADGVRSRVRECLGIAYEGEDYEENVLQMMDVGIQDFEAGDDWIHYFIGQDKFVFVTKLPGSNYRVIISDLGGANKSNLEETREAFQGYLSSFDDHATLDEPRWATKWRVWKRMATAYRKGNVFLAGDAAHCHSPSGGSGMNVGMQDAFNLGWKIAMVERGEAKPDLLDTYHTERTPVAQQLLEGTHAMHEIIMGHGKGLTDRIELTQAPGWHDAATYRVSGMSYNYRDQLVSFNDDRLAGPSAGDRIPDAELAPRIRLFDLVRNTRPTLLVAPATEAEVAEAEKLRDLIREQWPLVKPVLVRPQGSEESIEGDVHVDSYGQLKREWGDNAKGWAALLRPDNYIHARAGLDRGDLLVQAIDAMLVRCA

[3] = biological target: T1, PCPH; experiment: PCP concentration-dependent catalytic current, immobilised PCPH electrode
[4] = system: PCPH; conditions: -800 mV, aerobic, after 30 mins; cyclic voltammetry and gas chromatography of the organic extract

SMILES | oxidised by PCPH (substrate or not) [1] | substrate of PCPH (oxidised / attacked) [2] | further results
C1=C(c2ccccc2)CCCC1 [1-phenylcyclohexene] | None of the compounds except bibenzyl was oxidised by PCPH | – | –
Oc1cccc(Cl)c1Cl [2,3-dichlorophenol] | – | poor substrate | –
Oc1c(Cl)c(Cl)c(Cl)c(Cl)c1Cl [PCP, pentachlorophenol] | – | oxidised by PCPH | linear range of concentration dependence of the catalytic current ([3]; PCPH 87 μM in the solution evaporated on the electrode, FIG. 1): ca. 8 μM; linear range of concentration dependence of the catalytic current ([3]; PCPH 196 μM in the solution evaporated on the electrode, FIG. 2): ca. 25 μM; product of electrochemically driven oxidation by PCPH [4]: showed the presence of TeCH
c1ccccc1 [benzene] | – | not substrates | –
c1ccc(CCc2ccccc2)cc1 [bibenzyl] | a very small amount of product was detected | – | –
c1ccc(-c2ccccc2)cc1 [biphenyl] | None of the compounds except bibenzyl was oxidised by PCPH | – | –
c1ccc(Cc2ccccc2)cc1 [diphenylmethane] | None of the compounds except bibenzyl was oxidised by PCPH | – | –
CCCCCCCCCCCCCCCC [hexadecane] | None of the compounds except bibenzyl was oxidised by PCPH | – | –
Clc1cc(Cl)c(Cl)c(Cl)c1Cl [pentachlorobenzene] | – | not | –
c1ccc(C2CCCCC2)cc1 [phenylcyclohexane] | None of the compounds except bibenzyl was oxidised by PCPH | – | –
Cc1ccccc1 [toluene] | None of the compounds except bibenzyl was oxidised by PCPH | – | –
